In a melting point compilation (Tetko et al.; mined from patent text by program, amines drawn as free bases though some values may be those of a salt):

Row | Compound | melting point [°C]
1 | COc1c(C(C)(C)C)cc(N2CCCC2=O)cc1C(C)(C)C | 90 to 91
2 | COC(=O)c1ccc(OCCNC(=O)C2Cc3ccccc3N2S(=O)(=O)c2ccc(-c3cc(C(F)(F)F)ccc3Cl)cc2)cc1Cl (configuration not stated) | 70 to 76
3 | Nc1nnc(-c2cccc(OC(F)(F)C(F)F)c2)c(N)n1 | 199 to 200
4 | NS(=O)(=O)c1cc(C(=O)O)cc([N+](=O)[O-])c1Nc1cccc(C(F)(F)F)c1 | 213 to 215
5 | CC(C)(C)C#CC(O)(Cn1cncn1)C(C)(C)C (configuration not stated) | 114 to 118
6 | Cc1ccc(-c2ccc(C(=O)Nc3cc4ncc(CN5CCCC5)cc4cc3C)cc2)cc1 | 191 to 193
7 | CN(CCCO)CC1(SSC2(CN(C)CCCO)CCCCC2)CCCCC1 | 65 to 66
8 | C=Cc1cccc(-n2ncc(-c3ccc(S(C)(=O)=O)cc3)c(-c3ccc(F)cc3)c2=O)c1 | 182 to 183
9 | C[C@H](N[C@@H]1CNC(=O)C12CC2)c1ccccc1 | 107 to 110
10 | O=[N+]([O-])c1ccc(Oc2ccccc2)c(Cl)c1Oc1ccccc1 | 106 to 107
11 | Cc1ccc(C23CNCC2CC3=O)cc1 (configuration not stated) | 130 to 133
12 | CC(=O)Nc1cc(OC(F)F)c(OC(F)F)cc1[N+](=O)[O-] | 65 to 67
13 | CNC(=O)c1[nH]c2ccccc2c1Sc1ccccc1 | 201 to 204
14 | CCCOC(=O)C1CCC2C3CCC4CC(O)C(O)CC4(C)C3C(NCCC(C)C)CC12C (configuration not stated) | 140 to 142
15 | CN1C(=O)SC(Cc2cn(-c3ccccc3)nc2OCc2ccccc2)C1=O (configuration not stated) | 115 to 116
16 | O=c1ccc(-c2ccc(OCCCN3CCCCC3)nc2)n[nH]1 | 155 to 158
17 | CN(C)c1ccc(/C=C/c2c(F)cc(F)cc2F)cc1 | 127 to 128
18 | CCn1c2ccccc2c2cc(C=C(C#N)c3ccc(C(F)(F)F)cc3)ccc21 | 164 to 165
19 | CCc1nnc(SCC2=C(C(=O)O)N3C(=O)C(NC(=O)Cc4csc(=O)s4)C3SC2)s1 (configuration not stated) | 155
20 | CC1(C)CCC(=O)Nc2ccc(N)cc21 | 168
21 | O[C@@H]1C=CO[C@H](COCc2ccccc2)[C@H]1OCc1ccccc1 | 53
22 | CNC(=S)NCCSCc1nscc1Br | 62 to 63

Row | Compound | melting point [°C]
23 | Nc1ccc(Cn2cnc3c(-c4ccco4)ncnc32)cc1 | 195 to 197
24 | CCOC(=O)c1nc2c(=O)[nH]c3cc(C(F)(F)F)ccc3n2c1Cn1cnc(Cl)c1Cl | 240
25 | Cc1c(-c2cnc(C(N)=O)c3[nH]c4cc(NC5CCOC5)ccc4c23)cccc1N1Cc2ccc(Cl)cc2C1=O (configuration not stated) | 115
26 | Nc1ccccc1Nc1ccc(C(=NO)c2ccccc2)cc1 | 89 to 91
27 | Cc1ccc(S(=O)(=O)N2[C@@H](c3nnn(C)n3)CC[C@H]2c2ccc(F)cc2)cc1 (racemic) | 150
28 | CCC(CC)n1ncn(-c2ccc(N3CCN([C@H](C)[C@@](O)(Cn4cncn4)c4ccc(F)cc4F)CC3)cc2)c1=O | 110 to 113
29 | CC(c1ccc(C#Cc2ccccc2)cc1)N(O)C(N)=O (configuration not stated) | 144 to 146
30 | Nc1cccc(S(=O)(=O)Nc2ccccc2NNC=O)c1 | 120
31 | CC(=O)NC(=Cc1ccc(C#N)cc1)C(=O)N[C@H](C(=O)O)C1CCCCC1 | 196 to 198
32 | O=c1[nH]c(SCCCN2CCN(c3ccccn3)CC2)nc2sc3c(c12)CCCC3 | 190 to 192
33 | CC1OC(Cc2cccc3c2C(=O)c2ccccc2C3=O)CC(N)C1O (configuration not stated) | > 280
34 | O=Cc1cn(-c2cccnc2)c2ccccc12 | 148 to 150
35 | CC(C)(C)OC(=O)CN(C(=O)CN1C(=O)c2ccccc2C1=O)c1ccccc1Oc1ccccc1 | 145
36 | O=Cc1ccc(-c2ccccc2)c(Cl)c1 | 70 to 72
37 | COC(NC(=O)c1ccccc1O)C(Cl)(Cl)Cl (configuration not stated) | 117 to 118
38 | Nc1nonc1-c1nc2ccccc2n1CC(=O)c1ccccc1 | 202 to 204
39 | O=C1C2C3CCC(C3)C2C(=O)C1[N+](=O)[O-] (configuration not stated) | 167
40 | CN1CCN(CCCNC(=S)NC2CCCCC2)CC1 | 109 to 111
41 | Cc1ccc(-c2coc3c(C)c(O)ccc3c2=O)cc1 | 264 to 267
42 | O=C(Nc1nnn[nH]1)c1cc2c(cc1[N+](=O)[O-])OCO2 | 279
43 | Fc1ccc(-c2cn(C3CCCN4CCCCC34)nn2)cc1 (configuration not stated) | 142
44 | CSc1nc(=O)[nH]cc1Cl | 254

The remaining lines, values ahead:

Row | melting point [°C] | Compound
45 | 116 to 118 | CCOC(=O)C1=C(C)N=C(SCc2ccc(OC)cc2)N(C(=O)OCC)C1c1ccccc1OC (configuration not stated)
46 | 88 to 90 | CCCc1cccnc1N(C)C1CCN(C(=O)c2ccc[nH]2)CC1
47 | 155 | CC(C)(C)OC(=O)n1c2ccccc2c(=O)n1Cc1cccc(N)c1
48 | 180 | COC(=O)c1ccc(/C=C/C(=O)O)s1
49 | 49 to 54 | COc1ccc(C(=O)CC(C)C)c(Cl)c1Cl
50 | 114 to 115 | CCCc1nn(-c2ccc(C(F)(F)F)cn2)cc1CCCOc1ccc(CCC(=O)O)c(OC)c1
51 | 191 to 192 | Cc1ccccc1-c1coc2cc(OCC(=O)O)cc(Cl)c2c1=O
52 | 78 to 81 | COc1cc(OC2CCN(Cc3cccnc3)CC2)ccc1CC(=O)N1CCN(c2ccccc2C)CC1C(N)=O (configuration not stated)
53 | 134 to 136 | CC(=O)N(C)c1cc([N+](=O)[O-])cc([N+](=O)[O-])c1
54 | 154 to 156 | COCCOc1cc(N)c(Cl)cc1C(=O)NCC12CCCN(CCC1)C2
55 | 138 | CC(=O)SCC(Cc1ccccc1)C(=O)NN1CCSCC1 (configuration not stated)
56 | 325 to 327 | O=C(O)c1cn(C2CC2)c2nc(O)c(F)cc2c1=O
57 | 106 to 107 | CCOC(=O)C1(C(=O)OCC)N(Cc2ccc(OC)cc2OC)C(=O)CC1(C)O (configuration not stated)
58 | 105 to 106 | CCCC(=O)c1ccc(OC)c(C(=O)O)c1
59 | 259 | CC(C)(C)C1=NN(c2ccc(C(=O)O)cc2)C(c2ccc(O)cc2)C1 (configuration not stated)
60 | 98 to 100 | CC(C#CCOc1cccc(Oc2ccccc2)c1)N(O)C(N)=O (configuration not stated)
61 | 148 to 150 | CCCCc1nc(Cl)c(C(=O)O)n1Cc1ccc2oc(-c3ccccc3C(=O)OCC)c(Br)c2c1
62 | 109 to 110 | CC(=O)c1cc(-c2cccc(F)c2)c(=O)n2c1-c1sccc1CC2
63 | 182 to 183 | COc1ccc(-c2cc(C(N)=O)c(=O)n(CC3CCCC3)n2)cc1
64 | 159 to 161 | C=CCc1cc(CN2C(=O)CCc3c2ccc(O)c3CC=C)cc(OC)c1O
65 | 62 to 66 | CCOC(=O)C(C(=O)OCC)C(=O)C(C)Oc1cc(Cl)c(Cl)cc1Cl (configuration not stated)
66 | 146 to 147 | COC(=O)C1CCc2cc(OCc3nc(-c4ccccc4)oc3C)ccc2C1O (configuration not stated)
67 | 150 | COC(=O)c1c(C)nc2cccc(C)c2c1NCc1ccc(Br)cc1
68 | 113 to 114 | Cc1cnc(N)cc1C
69 | 153 to 156 | COc1cccc(N2CCC(C(N)=O)CC2)c1
70 | > 280 | CNc1c(F)cc2c(=O)c(C(=O)O)cn(-c3ccc(F)c(O)c3)c2c1Cl
71 | 130 to 132 | CCCCC(=O)c1c(-c2ccc3c(Br)c(OCC(=O)O)ccc3c2)oc2ccc(Cl)cc12
72 | 94 to 95 | C[C@H](Cc1c[nH]c2c(OCc3ccccc3)cccc12)NC(=O)OC(C)(C)C
